Results as given in paper PMC8249445, “Complex effects of macrolide venturicidins on bacterial F-ATPases likely contribute to their action as antibiotic adjuvants” (Scientific Reports, 2021).
pKi: −log10 of the molar value.

Key:
mitoFOF1 = tested on: mitoFOF1; set-up: method as in PMID 124668; conditions: cited from earlier work
[1] = target: T1, PaFOF1 in membranes from P. aeruginosa strain PAO1 (Pseudomonas aeruginosa, UniProt Q9HT15); assay: ATP hydrolysis by P. aeruginosa PAO1 membranes, enzyme-coupled spectrophotometric assay; type: biochemical; conditions: 38.5 mM selenite
T1 construct: endogenous in cells; host or cells: P. aeruginosa strain PAO1, inverted membrane vesicles
Protocol: P. aeruginosa strain PAO1 was grown in LB medium at 37 °C as described. For preparation of IMV, final cultures used 1 L of LB per 2L baffled flask and were inoculated from an overnight culture at an initial OD600 ~ 0.025. Cultures were shaken at 250 rpm and monitored until they reached mid- to late-logarithmic growth phase (OD600, 1–1.4). Cultures were chilled and subsequent steps for cell lysis and isolation of IMV were done at 4 °C. Cells were sedimented by centrifugation (3,700 × g, 30 min). Cells from 1 to 2 L of culture (~ 2–3 g wet cells/L) were resuspended in 25–40 ml of STEM buffer (TEM buffer plus sucrose[55]), transferred to a 50 ml Oak Ridge tube, sedimented again (11,617 × g, 10 min), resuspended in 20–40 ml of STEM and frozen at -80 °C. Thawed cells were lysed by two sequential passages through an SLM-Aminco French pressure cell at ~ 16,000 psi, essentially as described for E. coli[55]; the pressure cell was enclosed in a clear biohazard bag (MiniGrip, IP2024B3T) during use to contain any aerosols formed. Unlysed cells and cell wall debris were removed by centrifugation (50 ml Oak Ridge tubes, 16,743 × g, 25 min): the supernate was diluted with MTGM7.5 buffer (50 mM MOPS-TRIS, 10%(v/v) glycerol, 5 mM Mg(CH3COO)2, pH 7.5) and centrifugation was repeated at least twice, recovering the supernate each time. The final supernatant lysate was stored at -80 °C. To isolate IMV, the cleared lysate was thawed quickly and diluted with MTGM7.5 as needed to fill 1 or 2 polycarbonate tubes for use in a Beckman Ti70 rotor. The IMV (membranes) were sedimented by ultracentrifugation (250,000 × g max) for 1 h, the membranes were resuspended in MTGM7.5 buffer to fill one Ti70 tube and ultracentrifugation was repeated for 45 min. The membranes were resuspended in a small volume of MTGM7.5 buffer (typically ≥ 10 mg membrane protein/ml) and homogenized manually (Potter–Elvehjem type). Small aliquots of the final membrane sample were quick-frozen in liquid nitrogen and stored at − 80 °C.
ATP hydrolysis by membrane vesicles was assayed spectrophotometrically[57] at 30 °C using an open-chamber, diode array spectrophotometer (Hewlett Packard 8453 UV–Vis) as described in[29]. The assay medium (1 ml per assay) contained 20 mM Mops/Tris, pH 8.0, 0.2 mM EDTA, 10 mM CH3COOK, 1 mM ATP, 3.2 mM Mg(CH3COO)2, 1 mM phosphoenolpyruvate, at least 0.3 mM NADH, 0.1 mg/ml pyruvate kinase, 0.1 mg/ml lactate dehydrogenase, 5 mM KCN, and 5 μM carbonyl cyanide 4-(trifluoromethoxy)-phenylhydrazone. As noted before, the rate of ATP hydrolysis by membranes increases to a small degree during assays. This is due, at least in part, to dissociation of a small fraction of EcF1 and/or ε from the membranes, since the increase is inhibited by added ε (e.g., Fig. 5). To avoid interference of this increase with the changes of ATPase activity induced by venturicidins, unless indicated otherwise, measurement of ATPase activities were started 60 min after addition of membranes to the complete assay medium. This minimizes further increases in ATPase rate during control assays to < 15%. To keep absorbance between 1.5 and 2 units after the 60-min preincubation, up to 0.2 mM additional NADH was added to the assay medium. In figures displaying activity traces, some traces are shifted vertically for visual clarity.

E. coli = tested on: E. coli; set-up: method as in PMID 32424122; conditions: complex growth medium; cited from earlier work
[2] = tested on: FOF1 in membranes from P. denitrificans; set-up: method as in PMID 10672007; conditions: cited from earlier work

Structure (SMILES): CCC(=O)C(C)C(O)C(C)CC(C)C1OC(=O)CC2(O)CC=C(C)C(O2)C(C)=CCCCC(OC2CC(OC(N)=O)C(O)C(C)O2)C=CC(C)CC1C (stereo not drawn) [ventA, venturicidin A]
- Stimulation of solubilized ATPase (mitoFOF1; detergent-solubilized mitoFOF1): up to 3 fold
- Inhibition of membrane ATPase (mitoFOF1; mitoFOF1 in membranes): 95%
- Inhibition of early ATPase rate [1]: up to 42%
- ATPase remaining at saturating ventA ([1]; best fit of early rates): 62% (± 2)
- ventA-sensitive ATPase ([1]; best fit of early rates): 42% (± 3)
- Late rate, recovery of activity as % of uninhibited rate ([1]; concentration-dependent): up to 140%
- pKi ([1]; read-out: Ki (inhibition of early rate)): 5.92
- Adjuvant action (E. coli): minimal adjuvant action
- Sensitivity of ATPase to ventA inhibition, sulfite-activated vs PMF-activated FOF1 [2]: ~ threefold
